Test [1] concerns the target SUMO-activating enzyme (Homo sapiens, UniProt Q9UBT2). As to the kind of experiment: blockers of SAE1/SAE2–UBC9 SUMO transfer – biochemical, HTRF, uHTS, primary screen (AID 2006). In kind it is protein-complex assay.
Test [2] concerns the target T1, Exodeoxyribonuclease V (Escherichia coli (strain K12), UniProt P04993+P07648+P08394).
T1 sequence (P04993 whole entry): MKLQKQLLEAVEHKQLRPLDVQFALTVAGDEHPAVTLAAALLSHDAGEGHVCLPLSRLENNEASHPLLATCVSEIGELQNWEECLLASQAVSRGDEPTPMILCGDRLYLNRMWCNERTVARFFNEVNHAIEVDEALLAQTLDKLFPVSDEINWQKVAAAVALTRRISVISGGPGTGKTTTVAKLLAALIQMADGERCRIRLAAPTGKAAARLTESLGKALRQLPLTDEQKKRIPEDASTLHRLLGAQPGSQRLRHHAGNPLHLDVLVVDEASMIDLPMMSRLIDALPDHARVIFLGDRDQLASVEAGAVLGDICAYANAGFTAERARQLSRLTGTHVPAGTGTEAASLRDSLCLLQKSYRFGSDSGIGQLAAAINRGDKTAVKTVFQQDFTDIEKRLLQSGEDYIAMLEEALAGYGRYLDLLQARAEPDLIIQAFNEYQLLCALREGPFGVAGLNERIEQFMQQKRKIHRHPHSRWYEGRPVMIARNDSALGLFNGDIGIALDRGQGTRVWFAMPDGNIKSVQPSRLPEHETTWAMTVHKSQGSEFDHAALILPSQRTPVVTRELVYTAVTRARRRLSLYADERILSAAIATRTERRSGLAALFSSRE
T1 sequence (P07648 whole entry): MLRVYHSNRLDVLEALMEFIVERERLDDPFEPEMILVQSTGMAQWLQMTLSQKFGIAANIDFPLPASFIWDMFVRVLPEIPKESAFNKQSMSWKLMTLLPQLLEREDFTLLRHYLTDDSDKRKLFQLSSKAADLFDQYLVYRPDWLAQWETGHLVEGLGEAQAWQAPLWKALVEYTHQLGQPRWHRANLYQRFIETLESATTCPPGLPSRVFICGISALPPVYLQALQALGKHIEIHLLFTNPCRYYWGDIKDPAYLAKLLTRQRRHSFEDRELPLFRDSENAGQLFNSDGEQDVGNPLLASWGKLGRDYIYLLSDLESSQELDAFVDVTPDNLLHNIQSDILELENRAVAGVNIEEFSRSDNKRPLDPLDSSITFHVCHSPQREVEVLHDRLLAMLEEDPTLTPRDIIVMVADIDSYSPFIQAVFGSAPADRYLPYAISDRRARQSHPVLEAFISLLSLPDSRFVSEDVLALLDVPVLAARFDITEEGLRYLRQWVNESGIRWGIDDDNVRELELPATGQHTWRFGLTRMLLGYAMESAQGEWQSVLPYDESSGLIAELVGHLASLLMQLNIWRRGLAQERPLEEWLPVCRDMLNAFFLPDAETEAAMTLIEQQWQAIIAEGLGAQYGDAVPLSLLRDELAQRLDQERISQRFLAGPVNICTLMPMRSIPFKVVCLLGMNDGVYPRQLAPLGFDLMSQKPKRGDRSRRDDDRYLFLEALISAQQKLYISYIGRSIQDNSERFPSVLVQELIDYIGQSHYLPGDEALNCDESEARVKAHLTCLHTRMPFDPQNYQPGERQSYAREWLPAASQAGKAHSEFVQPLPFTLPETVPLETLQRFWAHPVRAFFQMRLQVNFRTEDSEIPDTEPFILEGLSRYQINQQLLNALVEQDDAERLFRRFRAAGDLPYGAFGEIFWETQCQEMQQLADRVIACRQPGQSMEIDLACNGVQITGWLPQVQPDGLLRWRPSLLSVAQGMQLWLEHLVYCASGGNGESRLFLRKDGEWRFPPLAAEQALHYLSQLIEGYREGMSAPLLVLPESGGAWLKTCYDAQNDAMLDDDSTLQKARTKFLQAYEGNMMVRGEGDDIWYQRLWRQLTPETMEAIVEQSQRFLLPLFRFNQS
T1 sequence (P08394 whole entry): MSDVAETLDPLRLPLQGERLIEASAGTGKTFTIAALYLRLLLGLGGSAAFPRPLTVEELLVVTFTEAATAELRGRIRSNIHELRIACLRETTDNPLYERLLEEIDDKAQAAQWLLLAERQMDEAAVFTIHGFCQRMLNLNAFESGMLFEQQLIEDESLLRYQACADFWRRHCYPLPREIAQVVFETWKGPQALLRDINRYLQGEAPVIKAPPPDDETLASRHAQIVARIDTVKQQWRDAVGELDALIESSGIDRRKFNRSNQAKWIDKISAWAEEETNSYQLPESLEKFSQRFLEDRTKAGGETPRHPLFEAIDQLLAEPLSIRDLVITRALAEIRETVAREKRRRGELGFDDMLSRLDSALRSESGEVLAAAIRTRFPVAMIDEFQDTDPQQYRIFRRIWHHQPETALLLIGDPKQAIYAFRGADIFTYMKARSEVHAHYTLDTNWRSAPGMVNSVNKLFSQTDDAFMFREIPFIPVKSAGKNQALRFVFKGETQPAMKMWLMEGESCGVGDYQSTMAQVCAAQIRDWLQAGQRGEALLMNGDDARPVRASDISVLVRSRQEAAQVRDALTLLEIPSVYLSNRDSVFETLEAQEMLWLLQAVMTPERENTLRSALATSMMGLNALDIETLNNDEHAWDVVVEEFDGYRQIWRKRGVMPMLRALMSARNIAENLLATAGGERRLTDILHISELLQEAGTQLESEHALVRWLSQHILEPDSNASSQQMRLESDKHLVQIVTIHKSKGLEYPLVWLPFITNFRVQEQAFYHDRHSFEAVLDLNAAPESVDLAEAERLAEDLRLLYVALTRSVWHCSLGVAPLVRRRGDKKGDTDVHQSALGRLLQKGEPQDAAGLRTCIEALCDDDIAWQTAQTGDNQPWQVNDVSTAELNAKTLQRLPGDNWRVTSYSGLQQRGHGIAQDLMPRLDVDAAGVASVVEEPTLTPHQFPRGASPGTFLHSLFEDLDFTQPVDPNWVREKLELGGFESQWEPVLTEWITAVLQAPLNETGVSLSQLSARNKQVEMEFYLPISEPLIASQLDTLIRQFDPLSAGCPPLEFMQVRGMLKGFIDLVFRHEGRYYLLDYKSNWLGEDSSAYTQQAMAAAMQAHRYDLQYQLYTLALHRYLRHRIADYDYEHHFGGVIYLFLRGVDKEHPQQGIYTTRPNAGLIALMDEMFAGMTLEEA
As to the kind of experiment: RecBCD inhibition via phage-restricted bacterial growth – absorbance, V66 E. coli, mutant T4 phage, counter-screen for AddAB inhibitor project, dose response (AID 492957). It counts as functional, cell-based, Escherichia coli str. K-12 substr. MG1655.

The structures appear in SMILES notation. The source made the active and inactive calls.

Chain of SUMO-activating enzyme (Q9UBE0 whole entry): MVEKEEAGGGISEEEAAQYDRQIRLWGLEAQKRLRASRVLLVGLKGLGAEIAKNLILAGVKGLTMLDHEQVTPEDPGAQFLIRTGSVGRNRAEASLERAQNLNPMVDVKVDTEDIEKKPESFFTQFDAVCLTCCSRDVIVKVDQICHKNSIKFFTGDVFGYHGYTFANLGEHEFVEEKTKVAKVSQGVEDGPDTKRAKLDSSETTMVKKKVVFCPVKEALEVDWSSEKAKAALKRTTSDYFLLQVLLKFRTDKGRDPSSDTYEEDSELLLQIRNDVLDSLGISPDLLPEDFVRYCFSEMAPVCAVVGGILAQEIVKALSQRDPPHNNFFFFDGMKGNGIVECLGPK
Chain of SUMO-activating enzyme (Q9UBT2 whole entry): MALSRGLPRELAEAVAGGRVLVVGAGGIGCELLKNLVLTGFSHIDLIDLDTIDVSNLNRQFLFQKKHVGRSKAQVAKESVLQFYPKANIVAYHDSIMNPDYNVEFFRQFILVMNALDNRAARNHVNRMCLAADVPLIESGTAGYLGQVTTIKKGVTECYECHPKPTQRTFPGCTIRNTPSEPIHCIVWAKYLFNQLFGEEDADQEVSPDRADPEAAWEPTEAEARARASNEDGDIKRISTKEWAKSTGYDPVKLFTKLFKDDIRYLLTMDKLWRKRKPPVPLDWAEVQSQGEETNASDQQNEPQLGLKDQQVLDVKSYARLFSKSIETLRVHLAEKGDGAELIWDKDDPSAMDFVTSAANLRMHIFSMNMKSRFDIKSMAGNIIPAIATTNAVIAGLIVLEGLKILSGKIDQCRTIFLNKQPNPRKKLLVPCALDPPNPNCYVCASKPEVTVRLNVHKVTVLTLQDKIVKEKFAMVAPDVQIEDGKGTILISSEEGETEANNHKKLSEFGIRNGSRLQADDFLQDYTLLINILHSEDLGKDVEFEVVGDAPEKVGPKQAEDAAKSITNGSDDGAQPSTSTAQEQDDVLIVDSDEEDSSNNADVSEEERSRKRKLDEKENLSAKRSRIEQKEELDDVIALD

On to `N#Cc1c(N2CCCCC2)nc(N)c2c(N)nc(SCC(=O)O)cc12`, for which the 50% inhibitory concentration (IC50) in test [1] is 3.92 µM (active).

For `CCCC(=O)NC(c1ccc(C(C)C)cc1)c1ccc2cccnc2c1O` (configuration not stated), in test [2], the IC50 was > 119 µM (inactive).

For the origin of these results see ChEMBL document CHEMBL1201862, “PubChem BioAssay data set” (2004).
